US7585859B2, “PDE4B inhibitors and uses therefor” (Plexxikon, Inc., priority 2004, dated 2009)
Where two headings read alike, the source gives them in different places.

Legend:
PDE4D = target: T1, PDE4D (Homo sapiens, UniProt Q08499); experiment: PDE4 IC50 determination by Scintillation Proximity Assay, PDE4D; format: biochemical
T1 construct: PDE4D: The catalytic domain of human PDE4B from S3 16-V692; His6 (N); thrombin cleavage site (N); made in house; host or cells: E. coli
Summary of the method: (§1)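 Scintillation counts reflected [^3H]AMP captured on yttrium silicate SPA beads after enzyme hydrolysed [^3H]cAMP for 30 min at 30°. PDE4B was used at 80 ng/ml and PDE4D at 4 ng/ml. IC50 values came from non-linear regression.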

[1] = target: T2, PDE4B: The catalytic domain of human PDE4B from S152-S528 (Homo sapiens, UniProt Q07343); experiment: PDE4 IC50 determination by Scintillation Proximity Assay, PDE4B; format: biochemical
T2 construct: His6 (N); thrombin cleavage site (N); made in house; host or cells: E. coli
Summary of the method: as §1

[2] = Table 3A, Formula III compounds, read-out: IC50 PDE4D
[3] = Table 3A, Formula III compounds, read-out: IC50 PDE4B
[4] = second part of Table 2B (2-23 to 2-103), column 5, column is PDE4D in first part, read-out: IC 50 vs. indicated assay h TNFα
[5] = second part of Table 2B (2-23 to 2-103), column 3, column is PDE4B in first part, read-out: IC 50 vs. indicated assay h TNFα
[6] = first part of Table 2B (2-1 to 2-22), read-out: IC 50 vs. indicated assay PDE4D
[7] = first part of Table 2B (2-1 to 2-22), read-out: IC 50 vs. indicated assay PDE4B
[8] = Table 1B, Formula I compounds, read-out: IC50 PDE4D
[9] = Table 1B, Formula I compounds, read-out: IC50 PDE4B

T2 sequence (Q07343 with tags, fused parts or gaps): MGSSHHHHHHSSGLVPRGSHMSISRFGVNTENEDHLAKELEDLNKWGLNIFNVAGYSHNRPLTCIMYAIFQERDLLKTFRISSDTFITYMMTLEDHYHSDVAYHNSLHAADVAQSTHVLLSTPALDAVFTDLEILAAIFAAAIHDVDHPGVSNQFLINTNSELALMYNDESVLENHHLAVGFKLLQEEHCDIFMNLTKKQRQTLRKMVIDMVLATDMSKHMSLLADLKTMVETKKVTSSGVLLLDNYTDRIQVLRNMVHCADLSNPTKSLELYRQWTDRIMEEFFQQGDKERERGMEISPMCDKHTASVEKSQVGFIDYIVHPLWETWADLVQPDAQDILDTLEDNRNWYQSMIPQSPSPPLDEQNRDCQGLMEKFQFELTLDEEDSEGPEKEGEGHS
T1 sequence (Q08499 380-756): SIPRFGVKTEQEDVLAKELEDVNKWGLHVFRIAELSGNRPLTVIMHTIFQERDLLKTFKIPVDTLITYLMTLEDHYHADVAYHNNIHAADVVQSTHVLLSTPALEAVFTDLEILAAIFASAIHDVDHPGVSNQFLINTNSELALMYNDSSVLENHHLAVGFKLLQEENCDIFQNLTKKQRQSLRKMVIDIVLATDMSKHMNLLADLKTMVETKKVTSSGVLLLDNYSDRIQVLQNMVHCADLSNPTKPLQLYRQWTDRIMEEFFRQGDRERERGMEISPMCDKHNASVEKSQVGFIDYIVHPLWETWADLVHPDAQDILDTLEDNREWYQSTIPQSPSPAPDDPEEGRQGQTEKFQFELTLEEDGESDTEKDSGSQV

Row | IC50 (PDE4D; [8]) [µM] | IC50 [1, 9] [µM] | Compound | further results
1 |  |  | Cc1ccc2cccnc2c1NS(=O)(=O)c1ccc(-c2ccccn2)s1 [Compound 3-29, 5-Pyridin-2-yl-thiophene-2-sulfonic acid (7-methyl-quinolin-8-yl)-amide] | IC50 (PDE4D; [2]): > 10 µM; IC50 [1, 3]: > 10 µM
2 |  |  | Nc1nc(Nc2ccccc2)sc1C(=O)c1ccccc1 [Compound 2-25, (4-Amino-2-phenylamino-thiazol-5-yl)-phenyl-methanone] | IC50 (PDE4D; [4]): < 10 µM; IC50 [1, 5]: < 10 µM
3 |  |  | CC(C)Nc1nc(N)c(C(=O)c2cc(-c3ccccc3)no2)s1 [Compound 2-11, (4-Amino-2-isopropylamino-thiazol-5-yl)-(3-phenyl-isoxazol-5-yl)-methanone] | IC50 (PDE4D; [6]): < 10 µM; IC50 [1, 7]: < 10 µM
4 |  |  | COc1cc(NS(=O)(=O)c2ccc(-c3cc(C(F)(F)F)n(C)n3)s2)c2ncccc2c1 [Compound 3-21, 5-(1-Methyl-5-trifluoromethyl-1H-pyrazol-3-yl)-thiophene-2-sulfonic acid (6-methoxy-quinolin-8-yl)-amide] | IC50 (PDE4D; [2]): > 10 µM; IC50 [1, 3]: > 10 µM
5 |  |  | CC(C)Nc1nc(N)c(C(=O)c2cc(-c3ccc(Cl)c(Cl)c3)no2)s1 [Compound 2-14, (4-Amino-2-isopropylamino-thiazol-5-yl)-[3-(3,4-dichloro-phenyl)-isoxazol-5-yl]-methanone] | IC50 (PDE4D; [6]): < 10 µM; IC50 [1, 7]: < 10 µM
6 | > 10 | < 10 | N#Cc1cccc(Nc2sc(C(=O)c3ccccn3)c(N)c2C#N)c1 [Compound 1-146, 4-Amino-2-(3-cyano-phenylamino)-5-(pyridine-2-carbonyl)-thiophene-3-carbonitrile] | 
7 | < 10 | < 10 | COc1ccc(C(=O)c2sc(Nc3ccccc3F)c(C#N)c2N)c(OC)c1 [Compound 1-100, 4-Amino-5-(2,4-dimethoxy-benzoyl)-2-(2-fluoro-phenylamino)-thiophene-3-carbonitrile] | 
8 | > 10 | < 10 | CCOC(=O)c1cc(C(=O)c2sc(NC3CCOC3=O)c(C#N)c2N)on1 (stereo not drawn) [Compound 1-140, 5-[3-Amino-4-cyano-5-(2-oxo-tetrahydro-furan-3-ylamino)-thiophene-2-carbonyl]-isoxazole-3-carboxylic acid ethyl ester] | 
9 | < 10 | < 10 | COc1ccc(CNc2sc(C(=O)c3ccccn3)c(N)c2C#N)cc1OC [Compound 1-149, 4-Amino-2-(3,4-dimethoxy-benzylamino)-5-(pyridine-2-carbonyl)-thiophene-3-carbonitrile] | 
10 | > 10 | < 10 | COC(=O)C(CC(C)C)Nc1sc(C(=O)c2cnn(-c3ccccc3)c2C)c(N)c1C#N (stereo not drawn) [Compound 1-52, 2-[4-Amino-3-cyano-5-(5-methyl-1-phenyl-1H-pyrazole-4-carbonyl)-thiophen-2-ylamino]-4-methyl-pentanoic acid methyl ester] | 
11 |  |  | COc1cc(NS(=O)(=O)c2cc(C)ccc2OC)c2ncccc2c1 [Compound 3-58, 2-Methoxy-N-(6-methoxy-quinolin-8-yl)-5-methyl-benzenesulfonamide] | IC50 (PDE4D; [2]): > 10 µM; IC50 [1, 3]: > 10 µM
12 | > 10 | > 10 | Cc1cc(Cl)ccc1Nc1sc(C(=O)c2cc3cc(Cl)ccc3o2)c(N)c1C#N [Compound 1-23, 4-Amino-5-(5-chloro-benzofuran-2-carbonyl)-2-(4-chloro-2-methyl-phenylamino)-thiophene-3-carbonitrile] | 
13 | < 10 | < 10 | N#Cc1c(Nc2ccc(C(=O)NC3CCOC3=O)cc2)sc(C(=O)c2coc3ccccc23)c1N (stereo not drawn) [Compound 1-108, 4-[4-Amino-5-(benzofuran-3-carbonyl)-3-cyano-thiophen-2-ylamino]-N-(2-oxo-tetrahydro-furan-3-yl)-benzamide] | 
14 |  |  | COc1cccc(C(=O)c2sc(Nc3ccccc3F)nc2N)c1 [Compound 2-62, [4-Amino-2-(2-fluoro-phenylamino)-thiazol-5-yl]-(3-methoxy-phenyl)-methanone] | IC50 (PDE4D; [4]): < 10 µM; IC50 [1, 5]: < 10 µM
15 | > 10 | < 10 | Cc1onc(-c2ccccc2)c1C(=O)c1sc(NC2CCOC2=O)c(C#N)c1N (stereo not drawn) [Compound 1-134, 4-Amino-5-(5-methyl-3-phenyl-isoxazole-4-carbonyl)-2-(2-oxo-tetrahydro-furan-3-ylamino)-thiophene-3-carbonitrile] | 
16 | > 10 | < 10 | CCc1ccccc1Nc1sc(C(=O)c2ccccn2)c(N)c1C#N [Compound 1-153, 4-Amino-2-(2-ethyl-phenylamino)-5-(pyridine-2-carbonyl)-thiophene-3-carbonitrile] | 
17 | < 10 | < 10 | N#Cc1c(NCCN2CCCCC2)sc(C(=O)c2ccc(-c3ccccn3)s2)c1N [Compound 1-70, 4-Amino-2-(2-piperidin-1-yl-ethylamino)-5-(5-pyridin-2-yl-thiophene-2-carbonyl)-thiophene-3-carbonitrile] | 

Row | IC50 (PDE4D; [8]) [µM] | IC50 [1, 9] [µM] | Compound | further results
18 | < 10 | < 10 | N#Cc1c(Nc2ccc3c(c2)CCC3)sc(C(=O)c2ccccn2)c1N [Compound 1-147, 4-Amino-2-(indan-5-ylamino)-5-(pyridine-2-carbonyl)-thiophene-3-carbonitrile] | 
19 | < 10 | > 10 | COc1ccc(OC)c(C(=O)c2sc(Nc3ccc(C(=O)NC4CCOC4=O)cc3)c(C#N)c2N)c1 (stereo not drawn) [Compound 1-97, 4-[4-Amino-3-cyano-5-(2,5-dimethoxy-benzoyl)-thiophen-2-ylamino]-N-(2-oxo-tetrahydro-furan-3-yl)-benzamide] | 
20 | < 10 | < 10 | N#Cc1c(Nc2ccc(C(=O)NC3CCOC3=O)cc2)sc(C(=O)c2ccccc2Cl)c1N (stereo not drawn) [Compound 1-114, 4-[4-Amino-5-(2-chloro-benzoyl)-3-cyano-thiophen-2-ylamino]-N-(2-oxo-tetrahydro-furan-3-yl)-benzamide] | 
21 |  |  | Nc1nc(NC2CCCC2)sc1C(=O)c1ccc(-c2ccccc2)s1 [Compound 2-18, (4-Amino-2-cyclopentylamino-thiazol-5-yl)-(5-phenyl-thiophen-2-yl)-methanone] | IC50 (PDE4D; [6]): < 10 µM; IC50 [1, 7]: < 10 µM
22 |  |  | COc1ccc(Nc2nc(N)c(C(=O)c3ccccc3)s2)cc1 [Compound 2-39, [4-Amino-2-(4-methoxy-phenylamino)-thiazol-5-yl]-phenyl-methanone] | IC50 (PDE4D; [4]): < 10 µM; IC50 [1, 5]: < 10 µM
23 | < 10 | < 10 | COc1ccc(Nc2sc(C(=O)c3cccc(Cl)c3)c(N)c2C#N)cc1 [Compound 1-117, 4-Amino-5-(3-chloro-benzoyl)-2-(4-methoxy-phenylamino)-thiophene-3-carbonitrile] | 
24 |  |  | Nc1nc(Nc2cccnc2)sc1C(=O)c1ccccc1 [Compound 2-71, [4-Amino-2-(pyridin-3-ylamino)-thiazol-5-yl]-phenyl-methanone] | IC50 (PDE4D; [4]): < 10 µM; IC50 [1, 5]: < 10 µM
25 |  |  | Nc1nc(Nc2cccc(C(=O)O)c2)sc1C(=O)c1ccccc1 [Compound 2-36, 3-(4-Amino-5-benzoyl-thiazol-2-ylamino)-benzoic acid] | IC50 (PDE4D; [4]): < 10 µM; IC50 [1, 5]: < 10 µM
26 | < 10 | < 10 | Cc1onc(-c2ccccc2)c1C(=O)c1sc(Nc2ccc(C(=O)NC3CCOC3=O)cc2)c(C#N)c1N (stereo not drawn) [Compound 1-133, 4-[4-Amino-3-cyano-5-(5-methyl-3-phenyl-isoxazole-4-carbonyl)-thiophen-2-ylamino]-N-(2-oxo-tetrahydro-furan-3-yl)-benzamide] | 
27 |  |  | O=C(NCc1ccc(S(=O)(=O)Nc2cccc3cccnc23)s1)c1ccccc1 [Compound 3-32, N-[5-(Quinolin-8-ylsulfamoyl)-thiophen-2-ylmethyl]-benzamide] | IC50 (PDE4D; [2]): > 10 µM; IC50 [1, 3]: > 10 µM
28 | < 10 | < 10 | COc1ccc(Nc2sc(C(=O)c3ccc(OC)cc3OC)c(N)c2C#N)cc1 [Compound 1-101, 4-Amino-5-(2,4-dimethoxy-benzoyl)-2-(4-methoxy-phenylamino)-thiophene-3-carbonitrile] | 
29 | < 10 | < 10 | N#Cc1c(Nc2ccc(C(=O)NC3CCOC3=O)cc2)sc(C(=O)c2cccc(Cl)c2)c1N (stereo not drawn) [Compound 1-119, 4-[4-Amino-5-(3-chloro-benzoyl)-3-cyano-thiophen-2-ylamino]-N-(2-oxo-tetrahydro-furan-3-yl)-benzamide] | 
30 | > 10 | < 10 | COc1ccc(OC)c(C(=O)c2sc(NC3CCOC3=O)c(C#N)c2N)c1 (stereo not drawn) [Compound 1-98, 4-Amino-5-(2,5-dimethoxy-benzoyl)-2-(2-oxo-tetrahydro-furan-3-ylamino)-thiophene-3-carbonitrile] | 
31 |  |  | Nc1nc(NC2CC2)sc1C(=O)c1cc(-c2ccccc2)no1 [Compound 2-10, (4-Amino-2-cyclopropylamino-thiazol-5-yl)-(3-phenyl-isoxazol-5-yl)-methanone] | IC50 (PDE4D; [6]): < 10 µM; IC50 [1, 7]: < 10 µM
32 |  |  | COc1ccc(C(=O)c2sc(Nc3ccc(Oc4ccccc4)cc3)nc2N)cc1 [Compound 2-49, [4-Amino-2-(4-phenoxy-phenylamino)-thiazol-5-yl]-(4-methoxy-phenyl)-methanone] | IC50 (PDE4D; [4]): < 10 µM; IC50 [1, 5]: < 10 µM
33 | < 10 | < 10 | COc1ccc(CNc2sc(C(=O)c3ccc(C)cc3C)c(N)c2C#N)cc1OC [Compound 1-162, 4-Amino-2-(3,4-dimethoxy-benzylamino)-5-(2,4-dimethyl-benzoyl)-thiophene-3-carbonitrile] | 
